According to patent publication EP1673349B1, “BENZIMIDAZOLE DERIVATIVES: PREPARATION AND PHARMACEUTICAL APPLICATIONS” (priority 2003, dated 2005):
pIC50: −log10 of the molar value. Read-outs that look alike come from different tables or passages of the source.

Columns and labels:
acetylated H2A = assay: Histone acetylation assay by immuno-blotting, acetylated H2A; assay type: cell-based, human; settings: Colo205 cells, 0.1, 1, 5 and 10 µM, 24 h, western blot
Method: (§1) A hallmark of histone deacetylase (HDAC) inhibition is the increase in the acetylation level of histones. Histone acetylation, including H3, H4 and H2A can be detected by immuno-blotting (westem-blot). Colo205 cells, approximately 1.5 x10^6 cells/ 10 cm dish, were seeded in the previously described medium, cultivated for 24 h and subsequently treated with HDAC inhibitory agents at 0.1, 1; 5 and 10 µM final concentration. After 24 h, cells were harvested and lysed according to the instruction from Sigma Mammalian Cell Lysis Kit. The protein concentration was quantified using BCA method (Sigma Pte Ltd). The protein lysate was separated using 4-12% bis-tris SDS-PAGE gel (Invitrogen Pte Ltd) and was transferred onto PVDF membrane (BioRad Pte Ltd). The membrane was probed separately using primary antibody specific for acetylated H3, acetylated H4 or acetylated H2A (Upstate Pte Ltd). The detection antibody, goat anti rabbit antibody conjugated with HRP was used according to the manufacturing instruction (Pierce Pte Ltd). After removing the detection antibody from the membrane, an enhanced chemiluminescent substrate for detection of HRP (Pierce Pte Ltd) was added onto the membrane. After removing the substrate, the membrane was exposed to an X-ray film (Kodak) for 1 sec - 20 mins. The X-ray film was developed using the X-ray film processor. The density of each band observed on the developed film could be analysed using UVP Bioimaging software (UVP, Inc, Upland, CA). The values were then normalized against the density of actin in the corresponding samples to obtain the expression of the protein.

HCT116 = assay: Cell-based proliferation assay (cyquant), HCT116; settings: Homo sapiens, HCT-116; Table 5; Free base
Method: (§2) Human colon cancer cell lines (Colo205 and HCT116), human breast cancer cell lines (MDA-MB435 and MDA-MB231), and human lung cancer cell line (A549) were obtained from ATCC. […] MDA-MB435 cells were cultivated in DMEM containing 2 mM L-Glutamine, 5% FBS. HCT116 cells were cultivated in IMEM containing 2 mM L-Glutamine, 5% FBS. A549 and Colo205 cells were seeded in 96-wells plate at 2000 and 5000 cells per well respectively. MDA-MB435, HCT116, MDA-MB231 cells were seeded in 96-wells plate at 6000 cells per well. The plates were incubated at 37°C, 5% CO2, for 24 h. Cells, were treated with compounds at various concentration for 96 h. Cell growth was then monitored using cyquant cell proliferation assay (Invitrogen Pte Ltd). Dose response curves were plotted to determine GI50 values for the compounds using XL-fist.

HDAC1 enzyme = HDAC1 enzyme (Homo sapiens, UniProt Q13547); assay: In vitro HDAC assay (BIOMOL fluorescent-based HDAC activity assay), HDAC1; assay type: biochemical
Method: (§3) Expression of GST-HDAC1 or HTGST-HDAC8 was done by infecting SF9 cells (Invitrogen Pte Ltd) with pDEST20-HDAC1 or pFASTBAC-GST-HDAC8 baculovirus at MOI=1 for 48 h. Soluble cell lysate was incubated with pre-equilibrated Glutathione Sepharose 4B beads (Amersham) at 4°C for 2 h. The beads were washed with PBS buffer for 3 times. The GST-HDAC1 protein or GST-HDAC8 protein was eluted by elution buffer containing 50 mM Tris, pH8.0, 150mM NaCl, 1% Triton X-100 and 10mM or 20mM reduced Glutathione. The purified GST-HDAC1 protein or purified GST-HDAC8 protein was dialyzed with HDAC storage buffer containing 10mM Tris, pH7.5, 100mM NaCl and 3mM MgCl2. 20% Glycerol was added to purified GST-HDAC1 protein or purified GST-HDAC8 before storage at -80°C.

acetylated H3 = assay: Histone acetylation assay by immuno-blotting, acetylated H3; assay type: cell-based, human; settings: Colo205 cells, 0.1, 1, 5 and 10 µM, 24 h, western blot
Method: as §1

MDA-MB435 = assay: Cell-based proliferation assay (cyquant), MDA-MB435; parameters: species or system human; settings: Homo sapiens, MDA-MB-435;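 note: GI50 taken from dose–response curves over a range of compound concentrations, with cell growth quantified by the CyQUANT proliferation assay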
Method: as §2

MDA-MB231 = assay: Cell-based proliferation assay (cyquant), MDA-MB231; settings: Homo sapiens, MDA-MB-231; Table 5; Free base
Method: as §2

A549 = assay: Cell-based proliferation assay (cyquant), A549; settings: Homo sapiens, Table 5, Free base
Method: as §2

Colo205 = assay: Cell-based proliferation assay (cyquant), Colo205; parameters: species or system human; settings: Homo sapiens;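 note: Colo205 cells exposed for 96 h to a range of compound concentrations, growth read by CyQUANT, GI50 taken from plotted dose-response curves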
Method: as §2

HDAC3 = assay: In vitro HDAC assay, HDAC3; assay type: biochemical; settings: Table 5; Free base
Method: The assay has been carried, out in 96 well format and the BIOMOL fluorescent-based HDAC activity assay has been applied. […] Flur de lys Developer was added and the reaction was incubated for 10 min. Briefly, deacetylation of the substrate sensitizes it to the developer, which then generates a fluorophore (symbol). The fluorophore is excited with 360 nm light and the emitted light (460 nm) is detected on a fluorometric plate reader (Tecan Ultra Microplate detection system, Tecan Group Ltd.).
The analytical software, Prism 3.0 has been used to generate IC50 from a series of data.

HDAC8 enzyme = assay: In vitro HDAC assay (BIOMOL fluorescent-based HDAC activity assay), HDAC8; assay type: biochemical, human
Method: as §3

acetylated H4 = assay: Histone acetylation assay by immuno-blotting, acetylated H4; assay type: cell-based, human; settings: Colo205 cells, 0.1, 1, 5 and 10 µM, 24 h, western blot
Method: as §1

[1] = Table 5, Salt of CF3COOH, read-out: IC50 (HDAC1)
[2] = COLO 205, 96 h, Table 4, 96 h treatment
[3] = COLO 205, Table 5, Salt of CF3COOH
[4] = Table 5, Free base, read-out: IC50 (HDAC8)
[5] = COLO 205, Table 4, 96 h treatment
[6] = Table 3, read-out: HDAC8 Enzyme Activity IC50

HDAC1 enzyme, sequence (Q13547 whole entry): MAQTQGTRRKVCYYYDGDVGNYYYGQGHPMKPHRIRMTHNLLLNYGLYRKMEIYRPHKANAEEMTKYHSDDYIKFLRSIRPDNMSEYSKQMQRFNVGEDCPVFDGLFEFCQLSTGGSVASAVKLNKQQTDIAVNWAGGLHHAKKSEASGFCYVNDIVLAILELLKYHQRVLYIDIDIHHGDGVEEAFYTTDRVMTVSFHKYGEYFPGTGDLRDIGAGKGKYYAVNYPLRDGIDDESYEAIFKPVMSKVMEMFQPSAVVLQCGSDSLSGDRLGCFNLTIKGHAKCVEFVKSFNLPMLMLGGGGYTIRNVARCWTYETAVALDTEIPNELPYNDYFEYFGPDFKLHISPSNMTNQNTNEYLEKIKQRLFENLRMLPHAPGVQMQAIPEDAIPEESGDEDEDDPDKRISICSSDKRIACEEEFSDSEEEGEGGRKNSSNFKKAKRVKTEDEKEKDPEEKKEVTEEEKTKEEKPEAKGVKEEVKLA

GI50 (Colo205; [2]) [nM] | GI50 (MDA-MB435; Table 4, 96 h treatment) [nM] | pIC50 (HDAC8 enzyme; [6]) | Compound | Histone acetylation activities Histone-2A (acetylated H2A) | Histone acetylation activities Histone-3 (acetylated H3) | Histone acetylation activities Histone-4 (acetylated H4) | other results
80 | – | – | O=C(/C=C/c1ccc2c(c1)nc(CCc1ccccc1)n2CCN1CCCCC1)NO [Compound 67, N-Hydroxy-3-[2-phenethyl-1-(piperidin-1-yl-ethyl)-1H-benzimidazol-5-yl]-acrylamide] | Active | Active | Active | GI50 (HCT116): 60 nM; pIC50 (HDAC1 enzyme; [1]): 7.41; GI50 (MDA-MB435; Table 5, Free base): 190 nM; GI50 (MDA-MB231): 60 nM; GI50 (A549): 80 nM; GI50 (Colo205; COLO 205, Table 5, Free base): 90 nM; GI50 (Colo205; [3]): 90 nM; pIC50 (HDAC3): 7.25; pIC50 (HDAC8 enzyme; [4]): 6.60
– | > 100000 | 6.79 | O=C(/C=C/c1ccc2c(c1)nc(-c1ccncc1)n2CCCO)NO [Compound 11, N-Hydroxy-3-[1-(3-hydroxy-propyl)-2-(4-pyridyl)-1H-benzimidazol-5-yl]-acrylamide] | – | – | – | GI50 (Colo205; [5]): > 100000 nM
– | 1070 | 6.69 | O=C(/C=C/c1ccc2c(c1)nc(CCc1ccccc1)n2Cc1cccnc1)NO [Compound 12, N-Hydroxy-3-[1-(3-pyridylmethyl)-2-(2-phenyl-ethyl)-1H-benzimidazol-5-yl]-acrylamide] | – | Active | Active | GI50 (Colo205; [5]): 380 nM
60 | 560 | 6.45 | CN(C)CC(C)(C)Cn1c(CCc2ccccc2)nc2cc(/C=C/C(=O)NO)ccc21 [Compound 17, N-Hydroxy-3-[1-(3-Dimethylamino-2,2-dimethyl-proppyl)-2-phenethyl-1H-benzimidazol-5-yl]-acrylamide] | Active | Active | Active | GI50 (HCT116): 300 nM; pIC50 (HDAC1 enzyme; Table 3, read-out: HDAC1 Enzyme Activity IC50): 7.62; pIC50 (HDAC1 enzyme; [1]): 7.62; GI50 (MDA-MB435; Table 5, Free base): 600 nM; GI50 (MDA-MB231): 700 nM; GI50 (A549): 200 nM; GI50 (Colo205; COLO 205, Table 5, Free base): 60 nM; GI50 (Colo205; [3]): 110 nM; GI50 (Colo205; COLO 205, Table 5, Salt of HCl): 60 nM; GI50 (Colo205; COLO 205, Table 5, Salt of Methane sulfonic acid): 40 nM; pIC50 (HDAC8 enzyme; [4]): 6.45
3650 | 3720 | 6.40 | CCCCCCCCc1nc2cc(/C=C/C(=O)NO)ccc2n1CCCO [Compound 23, N-Hydroxy-3-[1-(3-hydroxy-propyl)-2-octyl-1H-benzimidazol-5-yl]-acrylamide] | – | – | – | –
11400 | 19800 | 6.14 | O=C(/C=C/c1ccc2c(c1)nc(CCc1ccccc1)n2CCCN1CCCC1=O)NO [Compound 30, N-Hydroxy-3-{1-[3-(2-oxo-pyrrolidin-1-yl)-propyl]-2-phenethyl-1H-benzimidazol-5-yl}-acrylamide] | – | – | – | –
30900 | 37200 | 6.27 | O=C(/C=C/c1ccc2c(c1)nc(-c1ccsc1)n2CCCO)NO [Compound 20, N-Hydroxy-3-[1-(3-hydroxy-propyl)-2-thiophen-3-yl-1H-benzimidazol-5-yl]-acrylamide] | – | – | – | –
25900 | 30300 | 6.62 | CC(C)Cc1nc2cc(/C=C/C(=O)NO)ccc2n1CCCO [Compound 21, N-Hydroxy-3-[1-(3-hydroxy-propyl)-2-isobutyl-1H-benzimidazol-5-yl]-acrylamide] | – | – | – | –
29900 | 25700 | 6.10 | COc1cc(-c2nc3cc(/C=C/C(=O)NO)ccc3n2CCCO)ccc1OCc1ccccc1 [Compound 4, N-Hydroxy-3-[2-(4-benzyloxy-3-methoxy-phenyl)-1-(3-hydroxy-propyl)-1H-benzimidazole-5-yl]-acrylamide] | – | – | – | –
1540 | 3380 | 5.84 | O=C(/C=C/c1ccc2c(c1)nc(CCc1ccccc1)n2Cc1ccccc1)NO [Compound 33, N-Hydroxy-3-(1-Benzyl-2-phenethyl-1H-benzimidazol-5-yl)-acrylamide] | – | – | – | –
520 | 1640 | 6.92 | CC(Cc1nc2cc(/C=C/C(=O)NO)ccc2n1CCCO)c1ccccc1 (stereo not drawn) [Compound 1, N-Hydroxy-3-[1-(3-hydroxy-propyl)-2-(2-phenyl-propyl)-1H-benzimidazol-5-yl]-acrylamide] | Active | Active | Active | –
3070 | 5990 | 6.60 | O=C(/C=C/c1ccc2c(c1)nc(CCc1ccccc1)n2CCCO)NO [Compound 14, N-Hydroxy-3-[1-(3-hydroxy-propyl)-2-phenethyl-1H-benzimidazol-5-yl]-acrylamide] | – | – | – | –
430 | 320 | 6.45 | COc1cc(Cn2c(CCc3ccccc3)nc3cc(/C=C/C(=O)NO)ccc32)cc(OC)c1OC [Compound 2, N-Hydroxy-3-[1-(3,4,5-trimethoxybenzyl)-2-(2-phenyl-ethyl)-1H-benzimidazol-5-yl]-acrylamide] | Active | Active | Active | GI50 (HCT116): 400 nM; GI50 (MDA-MB435; Table 5, Free base): 300 nM; GI50 (MDA-MB231): 500 nM; GI50 (A549): 300 nM; GI50 (Colo205; COLO 205, Table 5, Free base): 400 nM; GI50 (Colo205; [3]): 400 nM; pIC50 (HDAC3): 7.19
